# Like-named read-outs stand apart in the source and are kept apart here.
# Key:
# [1] = cited from earlier work
# [2] = Elution of dexamethasone sodium phosphate from drug coated pace maker leads in conventional media; assay type: physicochemical; details: e.g. a media that utilizes just a surfactant
# Source text: The data disclosed in FIGS. 1-6 provides illustrative embodiments of the methods of invention that examine the elution of dexamethasone sodium phosphate from a polymeric silicone matrix. These examples provide an illustration of the power of the methodological embodiments of the invention, in particular in view of the fact that the elution of dexamethasone sodium phosphate from silicone polymer/drug coated pace maker leads is known to be minimal in conventional solvents. For example, certain elution media and methods may not be ideal for all drugs (e.g. dexamethasone sodium phosphate). For example, dexamethasone sodium phosphate is water soluble whereas typical methodologies described in the art are more suitable for water insoluble or sparingly soluble drugs. […]
# While the methodological embodiments of the invention can be used to assess the elution of a wide variety of compounds from a wide variety of matrices, these methods of the invention are particularly useful in the context of the manufacture of drug eluting implantable medical devices. For example, the safety and efficacy of drug coated pace maker leads are readily evaluated using the unique dissolution methods and materials disclosed herein. […]
# [3] = cited from earlier work; remark: listed apart in the source
# [4] = assay type: physicochemical
# Method: To evaluate buffers with different pH, Dexamethasone sodium phosphate can be dissolved in an elution media (e.g. one of the different embodiments of the invention disclosed herein). […] This concentration was about 10 times the concentration that might be observed if the drug from the typical device was completely eluted in about 75 mL of media.
elution of the drug in conventional media systems [2],stability with respect to pH (rank order) [4],SMILES,miscibility in alcohols and ether ([1]; alcohols and ether),solubility in water [1] [g/100 mL],elution from silicone polymer/drug coated pace maker leads in conventional solvents [3],solubility in water ([1]; in words),"solubility in water ([1]; in words, listed as dexamethasone sodium phosphate)"
,,"OCc1ccccc1 [Benzyl alcohol, Phenylmethanol]",completely miscible,4,,,
minimal,pH 4>pH 7.5>pH 9,C[C@@H]1C[C@H]2[C@@H]3CCC4=CC(=O)C=C[C@]4(C)[C@@]3(F)[C@@H](O)C[C@]2(C)[C@@]1(O)C(=O)COP(=O)(O)O [Dexamethasone sodium phosphate],,,minimal,freely soluble in water,water soluble

# From patent US7892840B2, “Media compositions for eluting compounds from matrices and methods for making and using them” (Medtronic MiniMed, Inc., priority 2008, dated 2011)
